Reference: US6858718B1, “Hydrogen production” (Melis Energy, priority 2001, dated 2005)
“Also recorded” adds a separate entry of the source. Where two headings read alike, the source gives them in different places.

Columns and labels:
[1] = system: iron hydrogenase from S. obliquus; assay: Biochemical data of purified iron hydrogenase, hydrogen evolution assay with reduced methyl viologen; design: species or system Scenedesmus obliquus
Procedure: (§1) The in vitro hydrogenase activity was measured by using a Hewlett Packard (HP 5890, Series II) gas chromatograph, equipped with a thermal conductivity detector and a molecular sieve column. Methyl viologen reduced by sodium dithionite was used as an electron donor. 1 unit is defined as the amount of hydrogenase evolving 1 mmol of molecular hydrogen (H2) per minute at 25° C.
40-liter cultures of Scenedesmus obliquus were grown heterotrophically. After centrifugation (10 min, 5000×g) the pellet we re-suspended in 200 ml TAP medium. The cells were anaerobically adapted by flushing the solution with argon for 1 hour in the dark. All further purification steps were performed in an anaerobic chamber (Coylab, Ann Arbor, Mich., USA). The cells were disrupted in a 50 mM Tris/HCl, buffer pH 8.0, 10 mM sodium dithionite by vortexing 3 min with glass beads. The further purification steps were made as described hereinbelow for the isolation of the Fe-hydrogenase of Chlamydomonas reinhardti. Automated Edman degradation of the N-terminal site of the protein was performed with an Applied Biosystem model 477A sequencer with online analysator model 120 A.
The N-terminal sequence of HydA was determined by Edman degradation.

[2] = system: iron hydrogenase from C. reinhardtii; assay: as above; design: species or system Chlamydomonas reinhardtii
Procedure: Hydrogenase activity of C. reinhardtii was determined in vitro with reduced methyl viologen using a gas chromatograph (Hewlett Packard 5890 Å Series II, column: molecular Sieve 5 Å, Mesh 60/80). The assay, containing in a final volume of 2 mL Pipes pH 6.8 (20 mM), Na2S2O4 (20 mM), MV (5 mM), was incubated anaerobically at 25° C. for 20 min. One unit is defined as he amount of hydrogenase evolving 1 μmol H2 per minute.
Cells from a 40-L culture of C. reinhardtii were harvested by ultra filtration through an Amicon Ultrafiltration System DC 10 LA, with a hollow-fiber filter. The pellet was resuspended in 200 mL TAP medium. After anaerobic adaptation by flushing the solution with argon for 1 h in the dark, all steps were performed under strictly anaerobic conditions. The isolated Fe-hyrogenase was chemically cleaved by cyanogen brormide (CNBr). After separation of he CNBr fragments on an SDS polyacrylamide gel, four peptides were blotted onto a poly(vinylidene difluoride) membrane and were sequenced. Automated Edman degradation was performed with an Applied Biosystem model 477 A sequencer with online analysator model 120 A.
To verify that the hydA ORF encodes the Fe-hydrogenase of C. reinhardtii, the enzyme was purified according to Happe and Naber (Eur. J. Biochem. 214,475-481 (1993)). The purified protein was able to evolve hydrogen, when incubated with reduced methyl viologen. After proteolytic digestion with cyanogen bromide, four bands of 4, 8, 9 and 11 kDa were detected after SDSIPAGE separation (data not shown). Two fragments (9 and 11 kDa) were sequenced by Edman degradation. […] The two fragment sequences are identical with he deduced amino-acid sequence of hydA (sequences are shadowed in gray in FIG. 6). The fragment corresponding to the cDNA region between 158 and 1636 bp of hydA was NdeI-BamHI cloned into the expression vector pET9a. The heterologous expressed protein was detected using antibodies raised against the Fe-hydrogenase. Both the purified Fe-hydrogenase of C. reinhardtii and the overexpressed enzyme had the same size (47.5 kDa). […] (ibid) who also detected no H2-production of the recombinant expressed Fe-hydrogenase from Desulfovibrio vulgaris in E. coli cells. An explanation might be the inability of E. coli to assemble the unique active site of the Fe-hydrogenases. It is known that E. coli has only three NiFe-hydrogenases with a different maturation system for the catalytic center.

[3] = system: H2-evolution; conditions: C. reinhardtii, stated as known; cited from earlier work
[4] = system: hydrogenase activity; assay: In vivo hydrogenase activity (H2 evolution) of anaerobically adapted cells in the presence of inhibitors of the photosynthetic electron flow; assay type: cell-based, Scenedesmus obliquus; conditions: for Effect on H2 photoproduction / hydrogenase activity (in words): S. obliquus cells after anaerobic adaptation
Procedure: (§2) The in vivo activity in the presence of different inhibitors of the photosynthetic electron flow was determined as described by Happe et al., in: European Journal of Biochemistry, 214, 475-481 (1993). After anaerobic adaptation, algal cells were harvested, diluted in fresh Tris acetate phosphate medium, and transferred to sealed tubes. Inhibitors were added 1 hour before H2 evolving activity was measured. Cells were broken by sonification. […] Ferrodoxin of both C. reinhardtii and S. obliquus was isolated according to the method of Schmitter et al. (Eur. J.l of Biochem., 172, pages 405-412 (1988)).
Hydrogenase activity was determined in intact and broken cells after anaerobic adaptation. […] This rate corresponds to 85% of the oxygen evolution measure with intact Scenedesmus cells.
In S. obliquus, the hydrogen evolution is linked to the photosynthetic electron transport chain through PSI. […] With reference to Table II, after anaerobic adaptation, cells were harvested, diluted in fresh, TAP medium, and incubated with inhibitors as described herein. α-PetF-antibody was raised against spinach ferredoxin. In Table II, DCMU=3-(3,4-dichlorophenyl)-1,1-dimethylurea; DBMIB=2,5-dibromo-3-methyl-6 isopropyl-p-benzochinone; Sulfo-DSPD=sulfodisalicylidinepropanediamin; DCPIP=2,6-dichlorophenolindophenol. The electron transport from PSI to ferredoxin was inhibited using the artificial electron acceptor DCPIP. In this reaction, DCPIP is reduced instead of ferredoxin and electron transfer to hydrogenase is interrupted.

[5] = system: purified S. obliquus hydrogenase; assay: Electron transfer properties of electron donors measured in vitro with dithionite as reducing reagent; assay type: biochemical, Scenedesmus obliquus; conditions: for H2-evolving activities: ferredoxin as electron donor, dithionite as reducing reagent
Procedure: as §1, §2
The electron transfer properties of different plant-type ferredoxins were measured in vitro with dithionite as a reducing reagent. […] In this assay, H2-evolving activities of 420, 390 and 350 U/mg protein with S. obliquus, C. reinhardtii and spinach ferredoxin, respectively, were observed. […] In D. desulfuricans, the Fe-hydrogenase has been reported to catalyze both hydrogen production and uptake with low potential multiheme cytochromes such as cytochrome c3.

[6] = Hydrogenase activity of lysate of induced E. coli cells expressing C. reinhardtii hydA; assay type: cell-based, Escherichia coli; conditions: lysate of the induced E. coli cells
Procedure: The hydA gene, corresponding to amino acids 57-497, was amplified, confirmed by sequences analysis and cloned into corresponding sites of he pET9a expression vector (Promega). The constructed plasmid was then ransformed into E. coli strain BL21(DE3). After induction with 1 mM isopropyl-thio-β-D-galactoside, the cells were resuspended in lysis buffer. Crude extracts from C. reinhardtii were isolated by harvesting cells after indicated anaerobic adaptation times. The pellet was resuspended in solubilization buffer and incubated with vigorous vortexing at RT for 30 min. The protein extracts from C. reinhardtii and E. coli were separated by 12% SDS/PAGE and blotted onto a poly(vinylidenedifluoride) membrane. Affinity-purified antibodies were diluted 1:200 and used for Western blot analyses.
To verify that the hydA ORF encodes the Fe-hydrogenase of C. reinhardtii, the enzyme was purified according to Happe and Naber (Eur. J. Biochem. 214,475-481 (1993)). […] After proteolytic digestion with cyanogen bromide, four bands of 4, 8, 9 and 11 kDa were detected after SDSIPAGE separation (data not shown). […] The heterologous expressed protein was detected using antibodies raised against the Fe-hydrogenase. […] (ibid) who also detected no H2-production of the recombinant expressed Fe-hydrogenase from Desulfovibrio vulgaris in E. coli cells. […]

[7] = Hydrogenase activity of lysate of induced E. coli cells expressing S. obliquus hydA; assay type: cell-based, Escherichia coli
[8] = broken cells, inhibitor 10^−5 M
[9] = intact cells, inhibitor 10^−5 M, added 1 hour before measurement
[10] = broken cells, inhibitor 10^−4 M
[11] = methyl viologen, read-out: KM value (MV)

Question: What does the source list for `[C-]#[O+]` [CO]?
Answer: Inhibition of the enzyme (in words) [1]: strongly inhibited; Inhibition of the enzyme (in words) [2]: strongly inhibited

Question: Which “Effect on H2 photoproduction (in words)” value [3] does the source give for `CC1=C(Br)C(=O)C(C(C)C)=C(Br)C1=O` [DBMIB, 2,5-dibromo-3-methyl-6 isopropyl-p-benzochinone] here?
Answer: Its value is “no H2-evolution”.

Question: And the “Effect on H2 photoproduction / hydrogenase activity (in words)” value [4]?
Answer: The value was “inhibition of the H2-production”.

Question: And the Hydrogenase activity [4, 8]?
Answer: Its Hydrogenase activity is 0.006 Units/mg chlorophyll.

Question: What about the Hydrogenase activity [4, 9] of the same molecule?
Answer: Its Hydrogenase activity is 0.005 Units/mg chlorophyll.

Question: Which “Effect on H2 photoproduction (in words)” value [3] does the source give for `CN(C)C(=O)Nc1ccc(Cl)c(Cl)c1` [DCMU, 3-(3,4-dichlorophenyl)-1,1-dimethylurea] here?
Answer: Its value is “still able to photoproduce hydrogen”.

Question: What about the “Effect on H2 photoproduction / hydrogenase activity (in words)” value [4] of the same molecule?
Answer: Its value is “still able to photoproduce hydrogen; also recorded: not influenced”.

Question: And the Hydrogenase activity [4, 8]?
Answer: The Hydrogenase activity was 0.11 Units/mg chlorophyll.

Question: And the Hydrogenase activity [4, 9]?
Answer: The Hydrogenase activity was 0.10 Units/mg chlorophyll.

Question: For `O=C1C(Cl)=CC(=Nc2ccc(O)cc2)C=C1Cl` [DCPIP, 2,6-dichlorophenolindophenol], which Hydrogenase activity [4, 10] is on record?
Answer: Its Hydrogenase activity is 0.003 Units/mg chlorophyll.

Question: Which “Hydrogen production with other possible electron donors (in words)” value ([5]; in vitro, purified S. obliquus hydrogenase) does the source give for `NC(=O)C1=CN([C@@H]2O[C@H](COP(=O)(O)OP(=O)(O)OC[C@H]3O[C@@H](n4cnc5c(N)ncnc54)[C@H](OP(=O)(O)O)[C@@H]3O)[C@@H](O)[C@H]2O)C=CC1` [NADPH, reference compound] here?
Answer: Its value is “No hydrogen production”.

Question: Which “Inhibition of the enzyme (in words)” value [1] does the source give for `O=O` [O2] here?
Answer: Its value is “strongly inhibited”.

Question: What about the “Inhibition of the enzyme (in words)” value ([1]; listed as oxygen) of the same molecule?
Answer: The value was “irreversibly inactivated”.

Question: What about the “Inhibition of the enzyme (in words)” value [2] of the same molecule?
Answer: The value was “strongly inhibited”.

Question: For “C. reinhardtii ferredoxin: plant-type [2Fe-2S] ferredoxin isolated from C. reinhardtii”, which H2-evolving activities [5] is on record?
Answer: Its H2-evolving activities is 390 U/mg protein.

Question: Which H2-evolving activities [5] does the source give for “spinach ferredoxin: plant-type [2Fe-2S] ferredoxin of spinach” here?
Answer: Its H2-evolving activities is 350 U/mg protein.

Question: What does the source list for “sulfodisalicylidinepropanediamin [sulfo-DSPD]”?
Answer: Effect on H2 photoproduction / hydrogenase activity (in words) [4]: specifically blocked; Reduction of hydrogenase activity ([4]; S. obliquus, Table II): up to 30 fold; Hydrogenase activity [4, 10]: 0.003 Units/mg chlorophyll

B1: C. reinhardtii iron hydrogenase: Fe-hydrogenase HydA from Chlamydomonas reinhardtii, mature polypeptide of 441 amino acids, SEQ. ID. NO. 5 precursor (protein)
chain: AAPAAEAPLSHVQQALAELAKPKDDPTRKHVCVQVAPAVRVAIAETLGLAPGATTPKQLAEGLRRLGFDEVFDTLFGADLTIMEEGSELLHRLTEHLEAHPHSDEPLPMFTSCCPGWIAMLEKSYPDLIPYVSSCKSPQMMLAAMVKSYLAEKKGIAPKDMVMVSIMPCTRKQSEADRDWFCVDADPTLRQLDHVITTVELGNIFKERGINLAELPEGEWDNPMGVGSGAGVLFGTTGGVMEAALRTAYELFTGTPLPRLSLSEVRGMDGIKETNITMVPAPGSKFEELLKHRAAARAEAAAHGTPGPLAWDGGAGFTSEDGRGGITLRVAVANGLGNAKKLITKMQAGEAKYDFVEIMACPAGCVGGGGQPRSTDKAITQKRQAALYNLDEKSTLRRSHENPSIRELYDTYLGEPLGHKAHELLHTHYVAGGVEEKDEKK
Question: With B1 as the molecule, how does the Km ([2]; ferredoxin, read-out: KM value (ferredoxin)) read?
Answer: The Km was 35 µM.

Question: What about the Km [2, 11] of the same molecule?
Answer: Its Km is 830 µM.

Question: What about the Specific activity ([2]; purified enzyme) of the same molecule?
Answer: Its Specific activity is 935 U/mg protein.

Question: And the pI value ([2]; purified enzyme)?
Answer: Its pI value is 5.3.

Question: What about the “Hydrogenase activity of lysate (in words)” value [6] of the same molecule?
Answer: Its value is “No hydrogenase activity”.

B2: S. obliquus iron hydrogenase: monomeric iron hydrogenase (HydA) of 44.5 kDa from Scenedesmus obliquus, SEQ. ID. NO. 4; recombinant form expressed in E. coli (protein, listed as Scenedesmus obliquus)
chain: MPEWQPGGRYAVSVRPPVNRRAVVAAERRRLVVRAAGPTAECDCPPAPAPKAPHWQQTLDELAKPKEQRKVMIAQIAPAVRVAIAETMGLNPGDVTVGQMVTGLRMLGFDYVFDTLFGADLTIMEEGTELLHRLQDHLEQHPNKEEPLPMFTSCCPGWVAMVEKSNPELIPYLSSCKSPQMMLGAVIKNYFAAEAGAKPEDICNVSVMPCVRKQGEADREWFNTTGAGGANVDHVMTTAELGKIFVERGIKLNDLQETPFDNPVGEGSGGVLFGTTGGVMEAALRTVYEVVTQKPLDRIVFEDVRGLEGIKESTLHLTPGPTSPFKAFAGADGTGITLNIAVANGLGNAKKLIKQLAAGESKYDFIEVMACPGGCIGGGGQPRSADKQILQKRQAAMYDLDERAVIRRSHENPLIGALYEKFLGEPNGHKAHELLHTHYVAGGVPDEK
Question: What does the source list for B2?
Answer: Hydrogenase activity of lysate (in words) [7]: no hydrogenase activity; Km [1, 11]: 800 µM; Specific activity ([1]; purified enzyme): 700 U/mg protein; pI value ([1]; purified enzyme): 5.17
